Laboratory results from patent publication US12377086B2, “Therapeutic methods, combinations and kits” (priority 2021, dated 2025).

Assays:
VIM-2 expressing E. coli = format: cell-based, Escherichia coli; details: VIM-2 expressing E. coli, compound with amoxicillin
Protocol: The optical density of the cell cultured was monitored at 600 nm (OD600 nm). The cells were cultured on 0.8 g/100 ml nutrient agar plate at pH 7.0 and 37° C. […] An overnight culture of the bacterial strain was sub-cultured to 0.06 OD600 nm into the NB medium and was then seeded at max 200 μl into the wells of a 96 well microtiter plate. Samples were then incubated at 37° C. and shaken at 200 rpm for 18 h. The absorbance was measured on an ELIZA plate reader and analyzed with the Gen5™ software suite (version 1.08).
• The data are reported as relative percentage growth compared to untreated cells.

in vitro [1] = details: human, HEK293 cells
Protocol: Human embryonic kidney cell line (HEK293) were grown in 100 mm cell culture petri dishes at 37° C. with 5% CO2 in Dulbecco's Modified Eagle's Medium high glucose medium containing 1% penicillin/streptomycin (Sigma-Aldrich, St. Louis, MO) and supplemented with 5% of fetal bovine serum (Thermo Fisher Scientific Gibco®). Cells under 10 passages and the 80% of monitored cell petri dish were used for experiment.
Cytotoxicity of tested compounds were estimated using the MTT method. Cell viability were measured by counting viable cells by using the 3 (4,5dimethylthiazol-2-yl)-2,5-diphenyltetrazolium bromide (MTT) (Sigma-Aldrich, St. Louis, MO) colorimetric dye-reduction assay. […] Following 24 h incubation and attachment, the cells were incubated for 72 h with different concentrations of inhibitors (0.01˜100 μM) in culture media without FBS. The Control cells were supplemented only with a medium without containing FBS. All samples in 96 well plate were incubated at 37° C. at an atmosphere of 5% CO2. […] The absorbance was measured using a micro-plate reader at wavelength 590 nm. The CC50 were obtained based on a comparison with untreated cells by fitting the data to a sigmoidal dose-response equation using Graphpad Prism 6.

VIM-2 [2] = molecular target: T1, VIM-2 (Pseudomonas aeruginosa, UniProt Q5U7L7); details: after incubation with inhibitor and dialysis
Protocol: VIM-2 was diluted to 6 μM with 50 mM HEPES, pH 7.5, containing 150 mM NaCl. The diluted protein solution was used to make several 5 mL aliquots. […] One aliquot contained one molar equivalent of inhibitor (6 μM), with respect to enzyme concentration, and the second aliquot contained two molar equivalents (12 μM). One aliquot contained no inhibitor. Each aliquot was then incubated for 4 h at 4° C. Following incubation, each aliquot was dialyzed versus 500 mL of 50 mM HEPES, pH 7.5, for 4 h at 4° C. The aliquots were analyzed using ICP-AES, as previously described REF. The emission wavelengths used were 213.856, 238.892, 259.940, 231.604, and 324.754 nm for Zn, Co, Fe, Ni, and Cu, respectively.
To further address the mode of action of 8-hydroxyquinolines, equilibrium dialysis experiments were conducted. […] EDTA, a well-known metal scavenger, inhibits all MBLs through a chelation mechanism (Bush, K.; Jacoby, G. A. Updated Functional Classification of beta-Lactamases. Antimicrobial Agents and Chemotherapy 2010, 54, 969-976).

in vitro [3] = details: human, plasma
Protocol: The plasma stability assay was performed in triplicate by incubating the test compound in normal human plasma at 37° C. At 0, 1, 3, 6, and 24 h, aliquots of the plasma mixture were taken and quenched with 3 volumes of acetonitrile. The samples were then vortexed and centrifuged at 14,000 rpm for 3 min at 4° C. The supernatants were collected and analyzed by LC-MS/MS to determine the remaining percentage at various time points and to calculate plasma half-life (t1/2).

VIM-2 [4] = molecular target: T1, VIM-2; experiment: biochemical; details: read-out: VIM-2 percentage inhibition, 50 μM compound, 5 nM MBL, 10 μM nitrocefin, 30 mins
Protocol: The pET24a-VIM-2 plasmid was transformed into competent BL21 (DE3) E. coli cells. The cells were plated onto an LB-agar plate with kanamycin (25 μg/mL) and incubated overnight at 37° C. A single colony was used to inoculate 50 mL of LB, containing 25 μg/mL kanamycin, and the culture was shaken overnight at 37° C. From the overnight culture, 10 mL were transferred to 4×IL LB medium containing 25 μg/mL kanamycin. The cultures were grown at 37° C. until an optical density (OD600 nm) of 0.6-0.8 was reached, at which point protein production was induced with IPTG (0.5 mM) and ZnCl2 (100 μM). The temperature was reduced to 20° C., and the cells were shaken for an additional 18 h. The cultures were harvested by centrifugation (8 Kxg) for 10 min at 4° C. The resulting pellets were re-suspended in 25 mL of 50 mM HEPES, pH 7.5, containing 500 mM NaCl (buffer B). The cells were lysed with three passes through a French Press. The lysate was centrifuged (15 Kxg) for 30 min at 4° C. The supernatant was dialyzed against 2 L of 50 mM HEPES, pH 7.5 (buffer A), for 4 h. Buffer A was used to equilibrate a 25 mL Q-Sepharose column using an FPLC. The sample was loaded onto the column, and proteins were eluted with a linear gradient 0-500 mM NaCl with buffer B. Fractions containing VIM-2, determined by SDS-PAGE, were pooled and concentrated to 2-3 mL in an Amicon ultraconcentrator equipped YM-10 membrane. Further purification was conducted with a Sephacryl S-200 gel filtration column using 50 mM HEPES, pH 7.5, containing 150 mM NaCl. Fractions containing pure VIM-2 were pooled, and metal analysis was performed.
(§1) To identify potential MBL inhibitors, the relative change in the formation of hydrolyzed nitrocefin between treated and untreated MBL was determined as percentage inhibition. 5 nM of each BML was pre-incubated for 10 mins with 50 μM of each compound, followed by the addition of 10 μM nitrocefin.
(§2) Each MBL was incubated with 50 μM of each compound, followed by the addition of nitrocefin. The relative change in absorbance is reported as percentage inhibition.

NDM-1 = NDM-1 (Klebsiella pneumoniae, UniProt C7C422); experiment: biochemical; details: read-out: NDM-1 percentage inhibition, 50 μM compound, 5 nM MBL, 10 μM nitrocefin, 30 mins
Protocol: BL21 (DE3) E. coli cells containing the pET26b-ndm-1 plasmid were used to inoculate a 50 mL LB starter culture containing kanamycin (25 μg/mL). The culture was grown overnight at 37° C. The starter culture was then used to inoculate 4×1 L LB containing kanamycin (25 μg/mL). These flasks were incubated at 37° C. until culture reached an optical density of (OD600) of 0.6 to 0.8. The incubator was then set to 22° C. and the cultures were shaken for 30 min to allow them to cool. ZnCl2 ([…]) and IPTG (0.5 mM) were then added to the cultures and they were grown for 18 h at 22° C. The cells were then harvested using centrifugation (8000×g) for 10 min. The pellet was resuspended with 25 mL 50 mM HEPES, pH 7.5 containing 500 mM NaCl (Buffer B). Lysis was performed with three passes through a French Press. The lysate was centrifuged for 30 min (15,000×g) at 4° C. The supernatant was then dialyzed versus 2 L 50 mM HEPES, pH 7.5 (Buffer C) for 4 h. An FPLC was used to equilibrate a Q-Sepharose column using buffer C using a flowrate of 2.0 mL/min for 1.5 h. The lysate was then loaded onto the column and eluted with a linear NaCl gradient from 0-500 mM. Fractions containing NDM-1 were identified with SDS-PAGE. These fractions were pooled and concentrated to 2-3 mL in an Amicon ultracentrifugation concentrating unit with a YM-10 membrane. The resulting protein mixture was then loaded onto a Sephacryl S-200 gel filtration column run with 50 mM HEPES, pH 7.5 containing 150 mM NaCl (Buffer A). SDS-PAGE was used to identify fractions containing pure protein.
as §1, §2

in vitro [5] = details: human, microsomes, pH 7.4
Protocol: The in vitro microsomal stability assay was conducted in triplicate in human liver microsomal systems. In a typical incubation, the test compound was spiked into the reaction mixture containing 0.5 mg/mL of liver microsomal protein and 1 mM of NADPH in 0.1 M potassium phosphate buffer (pH 7.4) at 37° C. At various time points, 1 volume of reaction aliquot was taken and quenched with 3 volumes of acetonitrile. The samples were then vortexed and centrifuged at 14,000 rpm for 3 min at 4° C. The supernatants were collected and analyzed by LC-MS/MS to determine the in vitro metabolic half-life (t1/2) and intrinsic clearance (CLint).

NDM-1, sequence (C7C422 whole entry, looked up, species assumed): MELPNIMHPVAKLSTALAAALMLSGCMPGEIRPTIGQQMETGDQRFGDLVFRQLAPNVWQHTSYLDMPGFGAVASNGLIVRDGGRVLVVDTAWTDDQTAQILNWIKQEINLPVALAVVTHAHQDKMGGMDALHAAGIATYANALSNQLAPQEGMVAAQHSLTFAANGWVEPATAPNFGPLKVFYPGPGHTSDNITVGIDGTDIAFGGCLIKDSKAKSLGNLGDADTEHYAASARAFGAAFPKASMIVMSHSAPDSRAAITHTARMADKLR

**Q.** Which synergistic growth inhibition (VIM-2 expressing E. coli) does the source give for `O=C(O)c1ccc2cccnc2c1O` [Compound 45, 8-hydroxyquinoline-7-carboxylic acid] here?
**A.** over 96%

**Q.** And the CC50 at 72 h (in vitro [1])?
**A.** > 100 µM

**Q.** What about the “metal content of VIM-2 / removal of Zn(II) from the active site” value (VIM-2 [2]) of the same compound?
**A.** do not inhibit VIM-2 by removal of Zn(II)

**Q.** And the half-life (in vitro [3])?
**A.** > 24 h

**Q.** What about the inhibition at 50 µM (VIM-2 [4]) of the same compound?
**A.** 94%

**Q.** What about the inhibition at 50 µM (NDM-1) of the same compound?
**A.** 99%

**Q.** What about the half-life (in vitro [5]) of the same compound?
**A.** > 1 h
